# Measured values as given in patent US20250221410A1, “SUBSTITUTED 2-C-AZINES AND SALTS THEREOF, AND USE THEREOF AS HERBICIDAL ACTIVE SUBSTANCES” (BAYER AKTIENGESELLSCHAFT, priority 2022, published 2025).
# Experiments:
# Assay type in all cases: in vivo
# [1] = tested on: ABUTH: Abutilon theophrasti; experiment: Pre-emergence herbicide efficacy at 1280 g/ha, ABUTH; conditions: visual scoring after about 3 weeks vs untreated controls
# Method in brief: (§1)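 Weed seeds were sown in sandy loam, covered with soil, and the soil surface was treated with the compound, formulated as wettable powder or emulsion concentrate, in water containing 0.5% additive at 600 L/ha. Plants then grew in the greenhouse for roughly 3 weeks before percentage efficacy was scored by eye against untreated controls.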
# [2] = tested on: MATIN: Matricaria inodora; experiment: Pre-emergence herbicide efficacy at 1280 g/ha, MATIN; conditions: visual scoring after about 3 weeks vs untreated controls
# Method in brief: as §1
# [3] = tested on: VERPE: Veronica persica; experiment: Post-emergence herbicidal efficacy at 80 g/ha, VERPE; conditions: visual rating about 3 weeks after treatment vs untreated controls
# Method in brief: (§2)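 Post-emergence spray, one-leaf stage (2–3 wk after sowing), sandy loam, greenhouse; WP/EC in water + 0.5% additive, 600 l/ha. Visual % activity vs untreated controls at ~3 wk; 100% = plants dead, 0% = like control.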
# [4] = tested on: ABUTH: Abutilon theophrasti; experiment: Pre-emergence herbicide efficacy at 80 g/ha, ABUTH; conditions: scored visually after about 3 weeks
# Excerpt: (§3) Seeds of monocotyledonous and dicotyledonous weed plants and crop plants were placed in plastic or organic planting pots and covered with soil. The compounds of the invention, formulated in the form of wettable powders (WP) or as emulsion concentrates (EC), were then applied to the surface of the covering soil as aqueous suspension or emulsion with addition of 0.5% additive at a water application rate equivalent to 600 l/ha. After the treatment, the pots were placed in a greenhouse and kept under good growth conditions for the test plants. After about 3 weeks, the efficacy of the preparations was scored visually in comparison with untreated controls as percentages. For example, 100% activity=the plants have died, 0% activity=like control plants. Tables D1 to D12 below show the effects of selected compounds of the general formula (I) according to Table 1 on various harmful plants and an application rate corresponding to 80 g/ha, which were obtained by the experimental procedure mentioned above.
# [5] = tested on: SETVI: Setaria viridis; experiment: Pre-emergence herbicide efficacy at 80 g/ha, SETVI; conditions: scored visually after about 3 weeks
# Excerpt: as §3
# [6] = tested on: VERPE: Veronica persica; experiment: Pre-emergence herbicide efficacy at 1280 g/ha, VERPE; conditions: visual scoring vs untreated controls
# Method in brief: as §1
# [7] = tested on: ALOMY: Alopecurus myosuroides; experiment: Pre-emergence herbicide efficacy at 1280 g/ha, ALOMY; conditions: visual scoring after about 3 weeks vs untreated controls
# Excerpt: (§4) Seeds of mono- and dicotyledonous weed plants were placed in plastic pots in sandy loam soil (doubly sown with one species each of mono- or dicotyledonous weed plants per pot) and covered with soil. The compounds of the invention, formulated in the form of wettable powders (WP) or as emulsion concentrates (EC), were then applied to the surface of the covering soil as aqueous suspension or emulsion with addition of 0.5% additive at a water application rate of 600 litres per hectare (converted). After the treatment, the pots were placed in a greenhouse and kept under good growth conditions for the test plants. After about 3 weeks, the efficacy of the preparations was scored visually in comparison with untreated controls as percentages. For example, 100% activity=the plants have died, 0% activity=like control plants. Tables C1 to C12 below show the effects of selected compounds of the general formula (I) according to Table 1 on various harmful plants and at an application rate corresponding to 1280 g/ha, which were obtained by the trial procedure specified above.
# [8] = tested on: LOLRI: Lolium rigidum; experiment: Pre-emergence herbicide efficacy at 1280 g/ha, LOLRI; conditions: visual scoring after about 3 weeks vs untreated controls
# Excerpt: as §4
# [9] = tested on: DIGSA: Digitaria sanguinalis; experiment: Pre-emergence herbicide efficacy at 1280 g/ha, DIGSA; conditions: visual scoring after about 3 weeks vs untreated controls
# Method in brief: as §1
# [10] = tested on: VERPE: Veronica persica; experiment: Post-emergence herbicidal efficacy at 1280 g/ha, VERPE; conditions: visual rating about 3 weeks after treatment vs untreated controls
# Method in brief: (§5)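 Greenhouse post-emergence spray: one-leaf stage, 2–3 wk after sowing; WP/EC as aqueous suspension/emulsion + 0.5% additive, 600 L/ha water. Visual % activity vs untreated at ~3 wk; 100% = dead, 0% = as control.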
# [11] = tested on: KCHSC: Kochia scoparia; experiment: Post-emergence herbicidal efficacy at 1280 g/ha, KCHSC; conditions: visual rating about 3 weeks after treatment vs untreated controls
# Method in brief: as §5
# [12] = tested on: SETVI: Setaria viridis; experiment: Pre-emergence herbicide efficacy at 1280 g/ha, SETVI; conditions: visual scoring vs untreated controls
# Method in brief: as §1
# [13] = tested on: AMARE: Amaranthus retroflexus; experiment: Post-emergence herbicidal efficacy at 1280 g/ha, AMARE; conditions: rated visually after about 3 weeks vs untreated controls, 100% = plants have died, 0% = like control plants
# Method in brief: as §5
# [14] = tested on: STEME: Stellaria media; experiment: Post-emergence herbicidal efficacy at 1280 g/ha, STEME; conditions: visual rating about 3 weeks after treatment vs untreated controls
# Method in brief: as §5
# [15] = tested on: ECHCG: Echinochloa crus-galli; experiment: Pre-emergence herbicide efficacy at 1280 g/ha, ECHCG; conditions: visual scoring after about 3 weeks vs untreated controls
# Method in brief: as §1
# [16] = tested on: VERPE: Veronica persica; experiment: Pre-emergence herbicide efficacy at 80 g/ha, VERPE; conditions: scored visually after about 3 weeks
# Excerpt: as §3
# [17] = tested on: KCHSC: Kochia scoparia; experiment: Pre-emergence herbicide efficacy at 1280 g/ha, KCHSC; conditions: visual scoring after about 3 weeks vs untreated controls
# Method in brief: as §1
# [18] = tested on: POAAN: Poa annua; experiment: Post-emergence herbicidal efficacy at 1280 g/ha, POAAN; conditions: visual rating about 3 weeks after treatment vs untreated controls
# Method in brief: as §5
# [19] = tested on: ABUTH: Abutilon theophrasti; experiment: Post-emergence herbicidal efficacy at 1280 g/ha, ABUTH; conditions: rated visually after about 3 weeks vs untreated controls, 100% = plants have died, 0% = like control plants
# Method in brief: as §5
# [20] = tested on: MATIN: Matricaria inodora; experiment: Pre-emergence herbicide efficacy at 80 g/ha, MATIN; conditions: scored visually after about 3 weeks
# Excerpt: as §3
# [21] = tested on: MATIN: Matricaria inodora; experiment: Post-emergence herbicidal efficacy at 1280 g/ha, MATIN; conditions: visual rating about 3 weeks after treatment vs untreated controls
# Protocol: Seeds of mono- and dicotyledonous weed plants were placed in plastic pots in sandy loam soil (doubly sown with in each case one species of mono- or dicotyledonous weed plants per pot), covered with soil and cultivated in a greenhouse under controlled growth conditions. 2 to 3 weeks after sowing, the test plants were treated at the one-leaf stage. The compounds of the invention, formulated in the form of wettable powders (WP) or as emulsion concentrates (EC), were applied to the green parts of the plants as aqueous suspension or emulsion with addition of 0.5% additive at a water application rate equivalent to 600 litres per hectare. After the test plants had been kept in the greenhouse under optimum growth conditions for about 3 weeks, the activity of the preparations was rated visually in comparison to untreated controls. For example, 100% activity=the plants have died, 0% activity=like control plants. Tables A1 to A12 below show the effects of selected compounds of the general formula (I) according to Table 1 on various harmful plants and at an application rate corresponding to 1280 g/ha, which were obtained by the trial procedure specified above.
# [22] = tested on: POAAN: Poa annua; experiment: Pre-emergence herbicide efficacy at 1280 g/ha, POAAN; conditions: visual scoring after about 3 weeks vs untreated controls
# Method in brief: as §1
# [23] = tested on: STEME: Stellaria media; experiment: Pre-emergence herbicide efficacy at 1280 g/ha, STEME; conditions: visual scoring vs untreated controls
# Method in brief: as §1
# [24] = tested on: AMARE: Amaranthus retroflexus; experiment: Pre-emergence herbicide efficacy at 80 g/ha, AMARE; conditions: scored visually after about 3 weeks
# Method in brief: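 Seeds are placed in pots and covered with soil, then the soil surface is treated with the formulated compound in water plus 0.5% additive (600 l/ha equivalent). Plants grow under good greenhouse conditions, and damage is rated visually as a percentage of untreated controls after roughly 3 weeks.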
# [25] = tested on: VIOTR: Viola tricolor; experiment: Pre-emergence herbicide efficacy at 80 g/ha, VIOTR; conditions: scored visually after about 3 weeks
# Excerpt: as §3
# [26] = tested on: SETVI: Setaria viridis; experiment: Post-emergence herbicidal efficacy at 1280 g/ha, SETVI; conditions: visual rating about 3 weeks after treatment vs untreated controls
# Method in brief: as §5
# [27] = tested on: DIGSA: Digitaria sanguinalis; experiment: Pre-emergence herbicide efficacy at 80 g/ha, DIGSA; conditions: scored visually after about 3 weeks
# Excerpt: as §3
# [28] = tested on: VIOTR: Viola tricolor; experiment: Post-emergence herbicidal efficacy at 80 g/ha, VIOTR; conditions: visual rating about 3 weeks after treatment vs untreated controls
# Protocol: Seeds of monocotyledonous and dicotyledonous weeds and crop plants were placed in sandy loam in plastic or organic planting pots, covered with soil and cultivated in a greenhouse under controlled growth conditions. 2 to 3 weeks after sowing, the test plants were treated at the one-leaf stage. The compounds of the invention, formulated in the form of wettable powders (WP) or as emulsion concentrates (EC), were then sprayed onto the green parts of the plants as aqueous suspension or emulsion with addition of 0.5% additive at a water application rate of 600 l/ha (converted). After the test plants had been kept in the greenhouse under optimum growth conditions for about 3 weeks, the activity of the preparations was rated visually in comparison to untreated controls. For example, 100% activity=the plants have died, 0% activity=like control plants. Tables B1 to B10 below show the effects of selected compounds of the general formula (I) according to Table 1 on various harmful plants and an application rate corresponding to 80 g/ha, which were obtained by the experimental procedure mentioned above.
# [29] = tested on: ECHCG: Echinochloa crus-galli; experiment: Post-emergence herbicidal efficacy at 1280 g/ha, ECHCG; conditions: rated visually after about 3 weeks vs untreated controls, 100% = plants have died, 0% = like control plants
# Method in brief: as §5
# [30] = tested on: AMARE: Amaranthus retroflexus; experiment: Pre-emergence herbicide efficacy at 1280 g/ha, AMARE; conditions: visual scoring after about 3 weeks vs untreated controls
# Method in brief: as §1
# [31] = tested on: KCHSC: Kochia scoparia; experiment: Pre-emergence herbicide efficacy at 80 g/ha, KCHSC; conditions: scored visually after about 3 weeks
# Excerpt: as §3
# [32] = tested on: AMARE: Amaranthus retroflexus; experiment: Post-emergence herbicidal efficacy at 80 g/ha, AMARE; conditions: visual rating about 3 weeks after treatment vs untreated controls
# Method in brief: as §2
# [33] = tested on: POLCO; experiment: Pre-emergence herbicide efficacy at 80 g/ha, POLCO; conditions: Polygonum convolvulus, scored visually after about 3 weeks
# Excerpt: as §3
# [34] = tested on: DIGSA: Digitaria sanguinalis; experiment: Post-emergence herbicidal efficacy at 1280 g/ha, DIGSA; conditions: rated visually after about 3 weeks vs untreated controls, 100% = plants have died, 0% = like control plants
# Method in brief: as §5
Structure (SMILES),Pre-emergence efficacy against ABUTH [1] [%],Pre-emergence efficacy against MATIN [2] [%],Pre-emergence efficacy against VERPE in % [6] [%],Pre-emergence efficacy against DIGSA [9] [%],Post-emergence efficacy against VERPE [10] [%],Post-emergence efficacy against KCHSC [11] [%],Pre-emergence efficacy against SETVI in % [12] [%],Post-emergence efficacy at 1280 g/ha against AMARE in % [13] [%],Post-emergence efficacy against STEME [14] [%],Pre-emergence efficacy against ECHCG [15] [%],Pre-emergence efficacy against KCHSC [17] [%],Post-emergence efficacy against POAAN [18] [%],Post-emergence efficacy at 1280 g/ha against ABUTH in % [19] [%],Post-emergence efficacy against MATIN [21] [%],Pre-emergence efficacy against POAAN [22] [%],Pre-emergence efficacy against STEME in % [23] [%],Pre-emergence efficacy against AMARE in % [24] [%],Pre-emergence efficacy against VIOTR in % [25] [%],Post-emergence efficacy against SETVI [26] [%],Post-emergence efficacy against VIOTR [28] [%],further results
Cc1cccc(Oc2ncc(F)cn2)c1Cc1ncc(Cl)cn1 [Example 1-65],100,100,100,100,100,100,100,100,100,100,100,100,100,100,100,100,100,100,90,100,Post-emergence efficacy against VERPE [3]: 90%; Pre-emergence efficacy against ABUTH in % [4]: 90%; Pre-emergence efficacy against SETVI in % [5]: 90%; Pre-emergence efficacy against ALOMY [7]: 90%; Pre-emergence efficacy against LOLRI [8]: 100%; Pre-emergence efficacy against VERPE in % [16]: 100%; Pre-emergence efficacy against MATIN in % [20]: 100%; Pre-emergence efficacy against DIGSA in % [27]: 90%; Post-emergence efficacy at 1280 g/ha against ECHCG in % [29]: 90%; Pre-emergence efficacy against AMARE [30]: 100%; Pre-emergence efficacy against KCHSC in % [31]: 100%
N#Cc1cccc(Cc2ncc(F)cn2)c1-n1cc(C(F)(F)F)cn1 [Example 1-131],100,100,100,100,100,100,100,100,100,100,100,100,100,90,90,100,100,90,90,90,Post-emergence efficacy against AMARE [32]: 100%; Pre-emergence efficacy against POLCO in % [33]: 80%; Post-emergence efficacy at 1280 g/ha against DIGSA in % [34]: 90%; Post-emergence efficacy at 1280 g/ha against ECHCG in % [29]: 100%; Pre-emergence efficacy against AMARE [30]: 100%
